Experimental data as given in patent US10858316B2, “Small molecule inhibitors of the MCL-1 oncoprotein and uses thereof” (University of Maryland, Baltimore, priority 2015, dated 2020).
Several values for one entry are separate records, joined by “and”; a condition that tells them apart may be missing. Equal entries are not always repeated. Where two headings read alike, the source gives them in different places.

How the values were obtained:
SK-MEL-5 melanoma cells = test: Cell proliferation, cell titer blue assay, SK-MEL-5; format: cell-based
Excerpt: (§1) Without being limited to any one theory, the poor efficacy in cells may be attributed to the charged carboxylic acid of 3bl.

Mcl-1 [1] = biological target: T1, Mcl-1 (Homo sapiens (Human), UniProt Q07820); test: Fluorescence polarization competition assay (FPCA), Mcl-1 / FITC-Bak BH3 peptide; format: binding; conditions: for Ki: read-out: Mcl-1 Ki
T1 sequence (Q07820 172-327): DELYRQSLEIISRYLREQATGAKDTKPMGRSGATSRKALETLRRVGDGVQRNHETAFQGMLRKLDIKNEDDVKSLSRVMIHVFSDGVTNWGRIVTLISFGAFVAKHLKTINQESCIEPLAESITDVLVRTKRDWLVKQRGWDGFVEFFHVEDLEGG
Summary of the method: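 Purified Mcl-1 (affinity tag cleaved, size-exclusion polished) competed against FITC-labeled Bak-BH3 peptide, read by fluorescence polarization. IC50 from Hill-equation fit; Ki derived from IC50 by the Nikolovska-Coleska equation.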

A375 melanoma cells = test: Cell proliferation / viability, CellTiter-Blue assay, A375; format: cell-based, human; conditions: for IC50: cell titer blue assay, read-out: IC50 inhibition of cell proliferation, A375
Procedure: as §1
The moderate cellular activity of ±-2 may, for instance, be due to limited cell penetration owing to the charged carboxylic acid. Thus, the acetoxymethyl ester ±-12 (R1=CH2OCOCH3) was prepared as a neutral prodrug of ±-2.

Bcl-xL = Bcl-xL (Homo sapiens (Human), UniProt Q07817); test: Fluorescence polarization competition assay, Bcl-xL; format: binding; conditions: Ki from IC50 by Nikolovska-Coleska equation; NA = no activity; read-out: Bcl-xL Ki
Bcl-xL, sequence (Q07817 whole entry): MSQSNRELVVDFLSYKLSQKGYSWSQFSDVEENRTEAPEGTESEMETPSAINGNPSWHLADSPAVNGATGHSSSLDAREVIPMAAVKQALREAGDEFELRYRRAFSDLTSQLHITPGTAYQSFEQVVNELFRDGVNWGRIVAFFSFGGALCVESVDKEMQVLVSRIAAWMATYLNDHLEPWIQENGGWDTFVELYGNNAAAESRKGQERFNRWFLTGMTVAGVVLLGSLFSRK

Mcl-1 [2] = biological target: T1, Mcl-1; test: 2D 1H-15N HSQC NMR with 15N-labeled Mcl-1; format: binding; conditions: 131 μM 15N-Mcl-1, 182 μM compound
Procedure: NMR spectra was collected at 25° C. with a Bruker AVANCE 800 NMR spectrometer (800.27 MHz for protons) equipped with pulsed-field gradients, four frequency channels, and triple resonance, z-axis gradient cryogenic probes. A one-second relaxation delay was used, and quadrature detection in the indirect dimensions was obtained with states-TPPI phase cycling; initial delays in the indirect dimensions were set to give zero- and first-order phase corrections of 90° and −180°, respectively. Data were processed using the processing program nmrPipe on Linux workstations. All proton chemical shifts are reported with respect to the H2O or HDO signal, taken to be 4.658 ppm relative to external TSP (0.0 ppm) at 37° C. The ^15N chemical shifts were indirectly referenced using the zero-point frequency at 37° C. of 0.10132905 for ^15N—^1H, as previously described.
All compounds used for NMR were initially suspended in 100% d6-DMSO. The NMR samples contained 131 μM ^15N-labeled Mcl-1, 182 μM compound, 20 mM HEPES, pH 6.8, 50 mM NaCl, 3 mM DTT, 20% D2O, and 5% D6-DMSO.

HL-60 cell line = test: Cell viability of HL-60 cell line after treating with inhibitors for 24 hrs; format: cell-based, human
Excerpt: The moderate cell grow inhibition ability for the two carboxylic acid ester prodrugs 20 and 21 could be attributed to the enzymatic hydrolysis that generated a free acid molecule (13ag) to function as an Mcl-1 inhibitor in the cells.

[3] = read-out: IC50 inhibition of cell proliferation, SK-MEL-5
[4] = FPCA with FITC-Bak, Ki from IC50 by Nikolovska-Coleska equation
[5] = CellTiter-Blue assay, read-out: GI50, viability of A375 cells
[6] = read-out: HL-60 IC50 0.5% FBS, 0.5% FBS
[7] = read-out: HL-60 IC50 10% FBS, 10% FBS

| Structure (SMILES) | Ki (Mcl-1 [1]; [4]) | Ki (Mcl-1 [1]; FPCA) [µM] | Ki (Bcl-xL) [µM] | Mcl-1 backbone 1H-15N chemical shift perturbation on compound binding (Mcl-1 [2]) | also measured |
| --- | --- | --- | --- | --- | --- |
| CC(=O)OCOC(=O)c1cc(S(=O)(=O)N(CC(C)C)c2ccc(OC(C)C)cc2)c2ccccc2c1O [Compound 14] |  |  |  |  | IC50 (SK-MEL-5 melanoma cells; [3]): 15 µM; Binding affinity to Mcl-1 in vitro (Mcl-1 [1]; FPCA): no binding affinity; IC50 (A375 melanoma cells): 15 µM |
| CC(=O)OCOC(=O)C1Cc2ccccc2N(S(=O)(=O)c2ccc(Oc3cc(C)c(Cl)c(C)c3)cc2)C1 (racemic) [±-12] | > 500 µM |  |  |  | Ki (Mcl-1 [1]; FPC assay): > 500 µM; GI50 (A375 melanoma cells; [5]): 73 µM |
| Cc1cc(Oc2ccc(N(Cc3ccccc3)S(=O)(=O)c3cc(C(=O)O)c(O)c4ccccc34)cc2)cc(C)c1Cl [Compound 3bl, 4-(N-Benzyl-N-(4-(4-chloro-3,5-dimethylphenoxy)phenyl)sulfamoyl)-1-hydroxy-2-naphthoic Acid] |  | 0.031 | 0.34 ± 0.13 |  | IC50 (SK-MEL-5 melanoma cells; Homo sapiens, SK-MEL-5, read-out: IC50 inhibition of cell proliferation, SK-MEL-5): 90 µM; IC50 (A375 melanoma cells; Homo sapiens, A-375): 50 µM |
| CC(C)CN(c1ccc(OC(C)C)cc1)S(=O)(=O)c1cc(C(=O)O)c(O)c2ccccc12 [Compound 3ba, 1-Hydroxy-4-(N-isobutyl-N-(4-isopropoxyphenyl)sulfamoyl)-2-naphthoic Acid] | 0.487 µM |  | 6.08 ± 0.81 | perturbation of the chemical shifts | IC50 (A375 melanoma cells; Homo sapiens, A-375): 150 µM |
| Cc1cc(Oc2ccc(S(=O)(=O)N3CC(C(=O)O)Cc4ccccc43)cc2)cc(C)c1Cl (racemic) [±-2] | 0.12 ± 0.053 µM | 0.12 |  | significant chemical shift changes | GI50 (A375 melanoma cells; [5]): 50 µM; GI50 (A375 melanoma cells; read-out: GI50, viability of A375 melanoma cells): 50 µM |
| COC(=O)c1cc(S(=O)(=O)N(CC(C)C)c2ccc(OC(C)C)cc2)c2ccccc2c1O [Compound 13] |  |  |  |  | IC50 (SK-MEL-5 melanoma cells; [3]): ~300 µM; Binding affinity to Mcl-1 in vitro (Mcl-1 [1]; FPCA): no binding affinity; IC50 (A375 melanoma cells): ~300 µM |
| Cc1cc(Oc2ccc(S(=O)(=O)N(CC(C)C)c3ccc(O)c(C(=O)O)c3)cc2)cc(C)c1Cl [JY-5-304 18bd] | 0.586 ± 0.041 µM | 0.586 | 2.91 ± 0.191 |  | IC50 (HL-60 cell line; [6]): 9.82 µM; IC50 (HL-60 cell line; [7]): > 120 µM |
| Cc1cc(Oc2ccc(S(=O)(=O)N(CC(C)C)c3ccc(C(=O)O)c(O)c3)cc2)cc(C)c1Cl [4jc117-5 13ak] | 0.778 ± 0.05 µM | 0.778 | 1.63 ± 0.177 | R263 and T266 were both perturbed |  |
| Cc1cc(Oc2ccc(S(=O)(=O)N(Cc3ccccc3)c3ccc(C(=O)O)c(O)c3)cc2)cc(C)c1Cl [LC-4-118 13cc] | 0.659 µM and 0.629 µM |  | 1.67 ± 0.351 |  | IC50 (HL-60 cell line; [6]): < 7.5 µM; IC50 (HL-60 cell line; [7]): 53.2 µM |
